From paper PMC6216040, “Repurposing of an old drug: In vitro and in vivo efficacies of buparvaquone against Echinococcus multilocularis” (International Journal for Parasitology: Drugs and Drug …, 2018)
Like-named read-outs stand apart in the source and are kept apart here.

System: E. multilocularis metacestodes
Test: PGI-assay: drug-induced damage on in vitro cultured metacestodes (Pathogen Box screening cascade and EC50)
Format: cell-based, Echinococcus multilocularis
Conditions: for PGI release, % of the Tx-100 control, 5d / PGI release, % of the Tx-100 control, 12d / cytotoxicity at 10 µM: 10 µM, singlets; for PGI release, % of Tx-100 control, average, 5d / PGI release, % of Tx-100 control, average, 12d: confirmatory screening at 10 µM in triplicates, values as % of Tx-100 control; for cytotoxicity at 10 µM: Echinococcus multilocularis

SMILES | PGI release, % of the Tx-100 control, 5d (5 days of incubation) [%] | PGI release, % of the Tx-100 control, 12d (12 days of incubation) [%] | PGI release, % of Tx-100 control, average, 5d (5 days of incubation) [%] | PGI release, % of Tx-100 control, average, 12d (12 days of incubation) [%] | cytotoxicity at 10 µM (120 h, 5 days of incubation, read-out: PGI release, % of the Tx-100 control, 5d) [%] | cytotoxicity at 10 µM (288 h, 12 days of incubation, read-out: PGI release, % of the Tx-100 control, 12d) [%]
COc1cccc(-n2nnnc2S(=O)(=O)Cc2ccccc2)c1 [MMV676388] | 12.00 | 14.67 |  |  |  | 
O=S(=O)(c1ccc(Cl)cc1)N1CCN(C(=S)NCc2ccco2)CC1 [MMV000858] | -0.26 | 2.40 |  |  |  | 
O=C(Nc1ccc(F)c(-c2nc3ncc(-c4ccccc4)cc3[nH]2)c1)N1CCCC1 [MMV688372] | 1.21 | 0.82 |  |  |  | 
CCN(CC)CCCN1CCN(C(=O)c2cccc(-c3noc(C(F)(F)F)n3)c2)CC1 [MMV022236] | -0.66 | -2.62 |  |  |  | 
COc1cccn2c(C(=O)N3CCCCC3)c(C(F)(F)F)nc12 [MMV1110498] | -3.14 | 0.63 |  |  |  | 
c1ccc(Oc2ccc(-c3cncc(-c4ccc5[nH]ccc5c4)n3)cc2)cc1 [MMV688178] | 0.34 | 0.47 |  |  |  | 
COc1ccc2nccc(NC(=O)C3CCN(CCc4ccc(Cl)cc4)CC3)c2n1 [MMV688844] | -0.25 | -3.99 |  |  |  | 
CC(C(=O)Nc1ccc2oc(-c3ccncc3)nc2c1)c1ccccc1 (stereo not drawn) [MMV688471] | -1.25 | 5.56 |  |  |  | 
NCC(c1cccs1)S(=O)(=O)c1ccccc1 (stereo not drawn) [MMV688557] | 0.26 | -2.41 |  |  |  | 
CCC(Sc1nc2ccccc2o1)C(=O)Nc1nnc(C)s1 (stereo not drawn) [MMV611037] | -0.81 | -1.11 |  |  |  | 
CCCCN(CCCC)c1c(C#N)cc(S(=O)(=O)Nc2ccccc2)cc1C#N [MMV688467] | 17.50 | 35.72 | 4.92 | 11.29 |  | 
COc1ccc(CCN2CCC(NCc3cccc(N(C)C)c3)CC2)cc1 [MMV011511] | 1.21 | 4.25 |  |  |  | 
Nc1ncnc2c1ncn2[C@@H]1O[C@H](COS(=O)(=O)NC(=O)c2ccccc2O)[C@@H](O)[C@H]1O [MMV687700, Salicyl-AMS, reference compound] | -0.78 | -1.38 |  |  |  | 
CCC(=O)Nc1ccccc1C(=O)Nc1ccccn1 [MMV202553] | -0.91 | 0.26 |  |  |  | 
Nc1ncnc2c1ncn2C[C@@H](O)[C@@H](O)C(=O)O [MMV689255, Eritadenine] |  |  |  |  | 0.0047 | 0.51
O=C(CCC1CCCCC1)Nc1cccc(-c2nnc(-c3ccco3)o2)c1 [MMV676589] | -1.81 | 2.20 |  |  |  | 
Nc1ncc(Br)cc1-c1nc2cc(Cl)cnc2[nH]1 [MMV676358] | 0.16 | -0.55 |  |  |  | 
CC(C)c1ncc(-c2ccncc2)c(C2CCC(CNC(=O)c3cccnc3)CC2)n1 (stereo not drawn) [MMV676442] | -0.58 | 4.83 |  |  |  | 
O=C(NCCc1ccn(-c2ccccc2)n1)C1CCCCC1 [MMV688795] | 0.14 | -0.21 |  |  |  | 
CCc1ccc([C@@H]2C[C@H](C(F)(F)F)n3ncc(C(=O)NCc4ccc(OC)cc4)c3N2)cc1 [MMV687180] | -2.14 | -5.92 |  |  |  | 
COc1cc(-c2cc(-c3ccc(S(C)(=O)=O)cc3)cnc2N)ccc1O [MMV010576] | -0.22 | -2.40 |  |  |  | 
CNC(=O)C1Cc2c([nH]c3cc(Cl)ccc23)C2(CCN(CCc3ccccc3)CC2)N1 (stereo not drawn) [MMV031011] | 4.51 | 91.49 | -0.91 | -1.45 |  | 
